In patent US20060063759A1, “Tricyclic steroid hormone nuclear receptor modulators” (priority 2002, published 2006) one finds Ki data, which are given here for 15 compounds.

The structures appear in SMILES notation.

Assay [1] has as its target T1, human MR (Homo sapiens, UniProt P08235).
T1 construct: The full length human MR gene is cloned from a human kidney or human brain cDNA library; His tag from the pAcHLT vector (own knowledge); made in house; host or cells: Sf9 insect cells (baculovirus, pAcHLT transfer vector)
T1 sequence (P08235 1-984): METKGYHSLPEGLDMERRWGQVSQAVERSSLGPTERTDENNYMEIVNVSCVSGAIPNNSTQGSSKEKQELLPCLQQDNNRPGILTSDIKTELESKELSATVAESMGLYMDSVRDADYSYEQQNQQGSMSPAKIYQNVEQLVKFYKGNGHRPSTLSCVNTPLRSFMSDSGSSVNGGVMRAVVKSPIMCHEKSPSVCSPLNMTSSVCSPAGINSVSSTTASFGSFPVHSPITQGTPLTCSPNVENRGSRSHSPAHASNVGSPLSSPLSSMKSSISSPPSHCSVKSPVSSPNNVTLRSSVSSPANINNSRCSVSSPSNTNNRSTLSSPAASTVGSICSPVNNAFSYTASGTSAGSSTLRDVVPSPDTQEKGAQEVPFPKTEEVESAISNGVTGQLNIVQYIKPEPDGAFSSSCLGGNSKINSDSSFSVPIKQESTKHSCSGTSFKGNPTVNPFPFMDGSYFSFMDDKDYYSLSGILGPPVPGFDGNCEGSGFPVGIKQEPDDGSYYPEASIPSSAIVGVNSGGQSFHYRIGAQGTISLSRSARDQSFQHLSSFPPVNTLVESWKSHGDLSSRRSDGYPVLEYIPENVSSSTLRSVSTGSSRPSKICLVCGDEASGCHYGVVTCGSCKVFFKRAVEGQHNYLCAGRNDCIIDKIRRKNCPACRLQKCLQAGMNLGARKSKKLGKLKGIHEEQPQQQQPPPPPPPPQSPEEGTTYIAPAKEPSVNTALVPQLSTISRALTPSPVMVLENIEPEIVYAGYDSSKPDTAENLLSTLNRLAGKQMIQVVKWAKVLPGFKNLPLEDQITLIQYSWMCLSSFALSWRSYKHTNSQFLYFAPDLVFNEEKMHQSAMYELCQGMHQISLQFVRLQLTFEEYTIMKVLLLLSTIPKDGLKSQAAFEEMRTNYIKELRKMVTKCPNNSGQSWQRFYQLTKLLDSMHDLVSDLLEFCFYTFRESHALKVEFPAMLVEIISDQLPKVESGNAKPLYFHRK
Nature of the assay: Mineralocorticoid Receptor Binding Assay ([3H]-aldosterone). Conditions: [3H]-aldosterone binding, human MR expressed in Sf9 cells; read-out: MR Ki. The method, then: (§1) All ligands, radioligands, solvents, and reagents employed in the binding assays are readily available from commercial sources, or can be readily synthesized by the ordinarily skilled artisan.
The full length human MR gene is cloned from a human kidney or human brain cDNA library. […] The PCR reaction is performed in a final volume of 50 μl containing about 1 μl of a 50× stock solution of polymerase; about 1 μl of a 50× stock solution of dNTP; about 5 μl of an appropriate PCR buffer; about 1 μl of each primer; about […] of a H. kidney or H. brain cDNA library; and about 36 μl of water. The reaction is allowed to denature for about 30 seconds at 95 degrees Celsius, anneal for about 30 seconds at 55 degrees Celsius, and extend for about 5 minutes at 72 degrees Celsius, the sequence being repeated for a total of about 35 cycles. […] To extract the cDNA product from the agarose gel, the QIAEX II Gel Extraction protocol (QIAGEN, Inc.) is employed according to the manufacturer's instructions. Following extraction, the MR cDNA is cloned into an appropriate cloning vector (Zero Blunt TOPO PCR Cloning Kit Invitrogen, Inc.) and a pAcHLT-baculovinis transfer vector (B.D./Pharminogen), then expressed in SF9 insect cells, essentially according to manufacturer's instructions. Sf9 cells are grown at a scale where gram quantity cell pellets are obtained for subsequent use in the MR binding assay. Harvested cell pellets are lysed by repeated freeze-thaw cycles (about 4) in a suitable lysis buffer then centrifuged at about 1×10^3 G (with the supernatant being saved for future assays).
MR binding assays are performed in a final total volume of about 250 μl containing about 20-25 μg of protein and 0.5 nM of [^3H]-aldosterone plus varying concentrations of test compound or vehicle. The assay binding buffer consists of 30 mM sodium molybdate, 30 mM of TRIS-HCl, 5 mM sodium phosphate, 5 mM sodium pyrophosphate, and about 10% glycerol, pH=7.5.
Incubations are carried out at 4 degrees Celsius with shaking for about 16 hours. 200 μl aliquots of each incubation are filtered onto Millipore HA 0.45 micron 96-well filter plates, pre-moistened with cold 30 mM TRIS-HCl. The filter plates are suctioned dry with vacuum and immediately washed 3× with cold 30 mM TRIS-HCl. The plates are then punched out and the amount of receptor-ligand complex is determined by liquid scintillation counting using 4 ml of Ready Protein Plus™ liquid scintillation cocktail.
IC50 values (defined as the concentration of test compound required to decrease [^3H]-aldosterone binding by 50%/o) are then determined.

Assay [2] concerns the target T2, glucocorticoid receptor (Homo sapiens, UniProt P04150).
T2 construct: containing 50-200 ug of A549 cell extract and 1.86 nM [^3H]-dexamethasone; host or cells: A549 human lung epithelial cells (sonicated cell extract)
T2 sequence (P04150 1-777): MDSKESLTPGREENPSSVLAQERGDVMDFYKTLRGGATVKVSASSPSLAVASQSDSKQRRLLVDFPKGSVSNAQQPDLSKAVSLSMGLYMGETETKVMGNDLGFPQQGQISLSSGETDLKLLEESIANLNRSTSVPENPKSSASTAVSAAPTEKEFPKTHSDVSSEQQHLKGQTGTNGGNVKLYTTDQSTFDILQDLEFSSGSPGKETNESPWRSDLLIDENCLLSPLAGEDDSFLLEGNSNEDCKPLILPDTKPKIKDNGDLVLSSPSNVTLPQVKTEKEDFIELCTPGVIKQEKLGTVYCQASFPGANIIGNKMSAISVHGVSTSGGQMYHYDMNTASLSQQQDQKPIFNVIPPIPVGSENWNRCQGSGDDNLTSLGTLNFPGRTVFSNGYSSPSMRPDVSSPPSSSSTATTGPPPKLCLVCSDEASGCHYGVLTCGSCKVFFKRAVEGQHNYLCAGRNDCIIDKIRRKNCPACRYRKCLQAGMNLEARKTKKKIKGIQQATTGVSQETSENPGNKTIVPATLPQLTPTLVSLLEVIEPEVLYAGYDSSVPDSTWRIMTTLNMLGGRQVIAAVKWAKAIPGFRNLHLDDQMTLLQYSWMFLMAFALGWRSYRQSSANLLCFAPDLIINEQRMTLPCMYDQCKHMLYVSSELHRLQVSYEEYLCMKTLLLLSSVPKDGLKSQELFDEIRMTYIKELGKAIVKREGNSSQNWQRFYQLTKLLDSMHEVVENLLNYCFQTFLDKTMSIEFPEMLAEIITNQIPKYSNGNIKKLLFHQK
Nature of the assay: Glucocorticoid Receptor Binding Assay ([3H]-dexamethasone, A549 cell extract). Conditions: [3H]-dexamethasone binding, read-out: GR Ki. The method, then: as §1
A549 human lung epithelial cells (ATCC) are grown at a scale where gram quantity cell pellets are obtained. Harvested cell pellets are washed twice in cold phosphate buffered saline, centrifuged, and resuspended in cold assay binding buffer. The assay binding buffer consists of 10% glycerol, 50 mM Tris-HCl (pH7.2), 75 mM sodium chloride, 1.5 mM magnesium chloride, 1.5 mM EDTA, and 10 mM sodium molybdate. Cell suspensions were lysed via sonication, centrifuged, and the “extract” supernatant is snap frozen and stored at −80 C until needed.
GR binding assays are performed in a final volume of 140 ul containing 50-200 ug of A549 cell extract and 1.86 nM [^3H]-dexamethasone (Amersham) plus varying concentrations of test compound or vehicle. Briefly, assays are prepared at RT in 96-well Fisher 3356 plates, each well containing 100 ul of A549 cell extract, 20 ul of [^3H]-dexamethasone, and 20 ul of test compound/vehicle. Incubations are carried out at 4 degrees Celsius for 16 hours. After incubation, 70 ul of 3× dextran-coated charcoal solution is added to each reaction, mixed, and incubated for 8 minutes at RT. 3×-dextran-coated charcoal solution consists of 250 ml assay binding buffer, 3.75 g Norit A charcoal (Sigma), and 1.25 g dextran T-70 (Amersham). Charcoal/unbound radioligand complexes are removed by centrifugation of the plate and 140 ul of supernatant from each well is transferred to another 96 well Optiplate (Packard Instruments). 200 ul of Microscint-20 scinillant (Packard Instruments) is added to each well and amount of receptor bound radioligand is determined using Packard Instruments TopCount instrument.

Broadly, the Ki is the equilibrium dissociation constant of an inhibitor or competing ligand from its target.

With `CS(=O)(=O)Nc1ccc(C=C2c3ccccc3CCc3c(Cl)cccc32)cc1` (mixture of isomers) [Example 210, N-[4-(1-Chloro-10,11-dihydro-dibenzo[a,d]cyclohepten-5ylidenemethyl)-phenyl]-methanesulfonamide], the Ki was less than 500 nM in assay [1] and less than 1000 nM in assay [2].

Consider `Oc1ccc(C=C2c3ccccc3CCc3c(Cl)cccc32)cc1` (mixture of isomers) [Example 212, 4-(1-Chloro-10,11-dihydro-dibenzo[a,d]cyclohepten-5-ylidenemethyl)-phenol], for which the Ki is less than 500 nM in assay [1] and less than 1000 nM in assay [2].

On to `CS(=O)(=O)Nc1cccc(C=C2c3ccccc3CCc3ccc(F)cc32)c1` (mixture of isomers) [Example 214, N-[3-(3-Fluoro-10,11-dihydro-dibenzo[a,d]cyclohepten-5-ylidenemethyl)-phenyl]-methanesulfonamide], for which the Ki in assay [1] and in assay [2] was less than 500 nM each time.

Turning to `Oc1cccc(C=C2c3ccccc3CCc3ccc(F)cc32)c1` (mixture of isomers) [Example 215, 3-(3-Fluoro-10,11-dihydro-dibenzo[a,d]cyclohepten-5-ylidenemethyl)-phenol], the Ki in assay [1] and in assay [2] was less than 500 nM throughout.

In the case of `Nc1cccc(C=C2c3ccccc3CCc3cc(Cl)ccc32)c1` (mixture of isomers) [Example 289, 3-(2-Chloro-10,11-dihydro-dibenzo[a,d]cyclohepten-5-ylidenemethyl)-phenylamine], the Ki is less than 500 nM in assay [1] and less than 1000 nM in assay [2].

On to `O=C1Nc2ccccc2C(=Cc2cccc(Cl)c2)c2ccccc21` (mixture of isomers) [Example 649], for which the Ki is less than 500 nM in assay [1] and less than 10000 nM in assay [2].

As to `O=C1Nc2ccc(Cl)cc2C(=Cc2cccc(Cl)c2)c2ccccc21` (mixture of isomers) [Example 655], the Ki in assay [1] and in assay [2] was less than 500 nM throughout.

On to `CS(=O)(=O)Nc1cccc(CC2c3ccccc3CCc3cc(Cl)ccc32)c1` (racemic) [Example 207, N-[3-(2-Chloro-10,11-dihydro-5H-dibenzo[a,d]cycloheptenylmethyl)-phenyl]-methanesulfonamide], for which the Ki in assay [1] and in assay [2] was less than 500 nM throughout.

With `COc1ccc2c(c1)COc1ccccc1C2C(C)c1cccc(NS(C)(=O)=O)c1` (racemic) [Example 752, N-{3-[1-(8-Methoxy-6,11-dihydro-dibenzo[b,e]oxepin-11-yl)-ethyl]-phenyl}-methanesulfonamide], the Ki in assay [1] and in assay [2] was less than 500 nM throughout.

For the compound `Oc1cc(C=C2c3ccccc3CCc3c(Cl)cccc32)ccc1Cl` [173(a), 2-Chloro-5-(1-chloro-10,11-dihydro-dibenzo[a,d]cyclohepten-5-ylidenemethyl)-phenol], the Ki in assay [1] and in assay [2] was less than 500 nM in each case.

Regarding `Oc1cc(C=C2c3ccccc3CCc3c(Cl)cccc32)ccc1Cl` [173(b), 2-Chloro-5-(1-chloro-10,11-dihydro-dibenzo[a,d]cyclohepten-5-ylidenemethyl)-phenol], the figures for the Ki in assay [1] and in assay [2] were less than 500 nM and less than 10000 nM, respectively.

As to `Oc1cccc(C=C2c3ccccc3CCc3cc(Cl)ccc32)c1` [181(a), 3-(2-Chloro-10,11-dihydro-dibenzo[a,d]cyclohepten-5-ylidenemethyl)-phenol], the Ki in assay [1] and in assay [2] was less than 500 nM in each case.

As for `CS(=O)(=O)Nc1cccc(C=C2c3ccccc3CCc3c(F)cccc32)c1` [184(a), N-[3-(1-Fluoro-10,11-dihydro-dibenzo[a,d]cyclohepten-5-ylidenemethyl)-phenyl]-methanesulfonamide], the Ki in assay [1] and in assay [2] was less than 500 nM in each case.

Regarding `Oc1cccc(C=C2c3ccccc3CCc3c(F)cccc32)c1` [185(a), 3-(1-Fluoro-10,11-dihydro-dibenzo[a,d]cyclohepten-5-ylidenemethyl)-phenol], the inhibition constant Ki in assay [1] and in assay [2] was less than 500 nM each time.

`Oc1cccc(C=C2c3ccccc3CCc3c(F)cccc32)c1` [185(b), 3-(1-Fluoro-10,11-dihydro-dibenzo[a,d]cyclohepten-5-ylidenemethyl)-phenol]: the values for the Ki in assay [1] and in assay [2] were less than 500 nM and less than 1000 nM, respectively.
